This is an account of results in PubChem BioAssay AID1259407 (Chemical Carcinogenesis Research Information System (CCRIS), 2018).

Calls of active or inactive are those of the source. No rule for the calls is given here.

For this data set, the system named is CCRIS mutagenicity, Ames/micronucleus/aberration tests. Description: CCRIS mutagenicity studies.
Where [1] appears, read: Test System: AMES SALMONELLA TYPHIMURIUM, Strain/Indicator: TA98, Metabolic Activation: NONE, Method: STANDARD PLATE.
The mark [2] stands for this setting: Test System: AMES SALMONELLA TYPHIMURIUM, Strain/Indicator: TA98, Metabolic Activation: RAT, LIVER, S-9, AROCLOR 1254, Method: STANDARD PLATE.
[3] abbreviates: Test System: AMES SALMONELLA TYPHIMURIUM, Strain/Indicator: TA100, Metabolic Activation: NONE, Method: STANDARD PLATE.
Setting [4] is: Test System: AMES SALMONELLA TYPHIMURIUM, Strain/Indicator: TA100, Metabolic Activation: RAT, LIVER, S-9, AROCLOR 1254, Method: STANDARD PLATE.

On to `CC(=O)C(Cl)(Cl)Cl`, for which the mutagenic call under setting [1] was “active; positive”; the mutagenic call under setting [2] is “active; positive”; the mutagenic call (Test System: AMES SALMONELLA TYPHIMURIUM, Strain/Indicator: TA100, Metabolic Activation: NONE, Method: FLUCTUATION TEST) is “active; positive”; the mutagenic call under setting [3] was “active; positive”; the mutagenic call (Test System: AMES SALMONELLA TYPHIMURIUM, Strain/Indicator: TA100, Metabolic Activation: RAT, LIVER, S-9, AROCLOR 1254, Method: FLUCTUATION TEST) is “inactive; negative”; the mutagenic call under setting [4] was “active; positive”. Also, the mutagenic call runs as follows: (Test System: AMES SALMONELLA TYPHIMURIUM, Strain/Indicator: TA1535, Metabolic Activation: NONE, Method: STANDARD PLATE) “active; positive”; (Test System: AMES SALMONELLA TYPHIMURIUM, Strain/Indicator: TA1535, Metabolic Activation: RAT, LIVER, S-9, AROCLOR 1254, Method: STANDARD PLATE) “active; positive”; (Test System: AMES SALMONELLA TYPHIMURIUM, Strain/Indicator: TA1537, Metabolic Activation: NONE, Method: STANDARD PLATE) “inactive; negative”; (Test System: AMES SALMONELLA TYPHIMURIUM, Strain/Indicator: TA1537, Metabolic Activation: RAT, LIVER, S-9, AROCLOR 1254, Method: STANDARD PLATE) “inactive; negative”.
For `OC1CC=Cc2c1cc1ccc3cccc4ccc2c1c34` (stereo not drawn), the mutagenic call under setting [2] is “active; positive”.
As for `COc1ccc2c(OC)c3ccoc3nc2c1`, the mutagenic call is, setting by setting: (Test System: AMES SALMONELLA TYPHIMURIUM, Strain/Indicator: TA98, Metabolic Activation: RAT, LIVER, S-9, PHENOBARBITAL, Method: STANDARD PLATE) “active; positive”; (Test System: AMES SALMONELLA TYPHIMURIUM, Strain/Indicator: TA100, Metabolic Activation: RAT, LIVER, S-9, PHENOBARBITAL, Method: STANDARD PLATE) “active; positive”.
With `CNC(=O)Oc1cccc2c1OC(C)(C)C2=O`, the mutagenic call (End Point: IN VIVO MICRONUCLEUS, Test System: BONE MARROW POLYCHROMATIC ERYTHROCYTES, Species: MOUSE, Strain/Sex: KM/MALE, FEMALE, Route: IP INJECTION) was “inactive; negative”.
Consider `CCCN(CCC)CCc1cccc2[nH]c3c(C)ccc(C)c3c12`, for which the mutagenic call runs as follows: under setting [1], “inactive; negative”; (Test System: AMES SALMONELLA TYPHIMURIUM, Strain/Indicator: TA98, Metabolic Activation: RAT, LIVER, S-9, PHENOBARBITAL AND 5,6-BENZOFLAVONE, Method: STANDARD PLATE) “active; positive”; under setting [3], “inactive; negative”; (Test System: AMES SALMONELLA TYPHIMURIUM, Strain/Indicator: TA100, Metabolic Activation: RAT, LIVER, S-9, PHENOBARBITAL AND 5,6-BENZOFLAVONE, Method: STANDARD PLATE) “active; positive”; (Test System: UDS HUMAN HEPATOCYTES, Strain/Indicator: THY INCORP, Metabolic Activation: NONE, Method: IN VITRO) “active; positive”; (Test System: UDS RAT HEPATOCYTES, Strain/Indicator: THY INCORP, Metabolic Activation: NONE, Method: IN VIVO-IN VITRO) “active; positive”.
Take `C[C@H](CCC(=O)O)[C@H]1CC[C@H]2[C@@H]3[C@H](O)C[C@@H]4C[C@H](O)CC[C@]4(C)[C@H]3C[C@H](O)[C@]12C`: the mutagenic call is, setting by setting: (Test System: AMES SALMONELLA TYPHIMURIUM, Strain/Indicator: TA98, Metabolic Activation: NONE, Method: PREINCUBATION) “inactive; negative”; (Test System: AMES SALMONELLA TYPHIMURIUM, Strain/Indicator: TA98, Method: PREINCUBATION) “inactive; negative”; under setting [3], “inactive; negative”; under setting [4], “inactive; negative”.
For `O=C1CCCc2cc([N+](=O)[O-])c3ccccc3c21`, the mutagenic call (Test System: AMES SALMONELLA TYPHIMURIUM, Strain/Indicator: TA98-1,8-DNP6, Metabolic Activation: NONE) was “inactive; negative”; the mutagenic call (Test System: AMES SALMONELLA TYPHIMURIUM, Strain/Indicator: TA98-1,8-DNP6, Metabolic Activation: S-9) is “inactive; negative”; the mutagenic call (Test System: AMES SALMONELLA TYPHIMURIUM, Strain/Indicator: TA98, Metabolic Activation: NONE) is “active; positive”; the mutagenic call (Test System: AMES SALMONELLA TYPHIMURIUM, Strain/Indicator: TA98, Metabolic Activation: S-9) is “active; positive”; the mutagenic call (Test System: AMES SALMONELLA TYPHIMURIUM, Strain/Indicator: TA98NR, Metabolic Activation: NONE) was “inactive; negative”; the mutagenic call (Test System: AMES SALMONELLA TYPHIMURIUM, Strain/Indicator: TA98NR, Metabolic Activation: S-9) is “inactive; negative”. The mutagenic call is, setting by setting: (Test System: AMES SALMONELLA TYPHIMURIUM, Strain/Indicator: TA100, Metabolic Activation: NONE) “active; positive”; (Test System: AMES SALMONELLA TYPHIMURIUM, Strain/Indicator: TA100, Metabolic Activation: S-9) “active; positive”; (Test System: AMES SALMONELLA TYPHIMURIUM, Strain/Indicator: TA100NR, Metabolic Activation: NONE) “active; positive”; (Test System: AMES SALMONELLA TYPHIMURIUM, Strain/Indicator: TA100NR, Metabolic Activation: S-9) “active; positive”.
Regarding `O=[N+]([O-])c1ccccc1CCl`, the mutagenic call runs as follows: (Test System: AMES SALMONELLA TYPHIMURIUM, Strain/Indicator: TA98, Metabolic Activation: HAMSTER, LIVER, S-9, AROCLOR 1254 (10%), Method: PREINCUBATION) “inactive; negative”; (Test System: AMES SALMONELLA TYPHIMURIUM, Strain/Indicator: TA98, Metabolic Activation: RAT, LIVER, S-9, AROCLOR 1254 (10%), Method: PREINCUBATION) “inactive; negative”; (Test System: AMES SALMONELLA TYPHIMURIUM, Strain/Indicator: TA98, Metabolic Activation: RAT, LIVER, S-9, KANECHLOR 500, Method: PREINCUBATION) “active; positive”; (Test System: AMES SALMONELLA TYPHIMURIUM, Strain/Indicator: TA100, Metabolic Activation: HAMSTER, LIVER, S-9, AROCLOR 1254 (10%), Method: PREINCUBATION) “active; positive”; (Test System: AMES SALMONELLA TYPHIMURIUM, Strain/Indicator: TA100, Metabolic Activation: NONE, Method: PREINCUBATION) “active; positive”; (Test System: AMES SALMONELLA TYPHIMURIUM, Strain/Indicator: TA100, Metabolic Activation: RAT, LIVER, S-9, AROCLOR 1254 (10%), Method: PREINCUBATION) “active; positive”. In addition, the mutagenic call was “active; positive” (Test System: AMES SALMONELLA TYPHIMURIUM, Strain/Indicator: TA100, Metabolic Activation: RAT, LIVER, S-9, KANECHLOR 500, Method: PREINCUBATION); “active; positive” (Test System: AMES SALMONELLA TYPHIMURIUM, Strain/Indicator: TA1535, Metabolic Activation: HAMSTER, LIVER, S-9, AROCLOR 1254 (10%), Method: PREINCUBATION); “inactive; negative” (Test System: AMES SALMONELLA TYPHIMURIUM, Strain/Indicator: TA1535, Metabolic Activation: NONE, Method: PREINCUBATION); “active; positive” (Test System: AMES SALMONELLA TYPHIMURIUM, Strain/Indicator: TA1535, Metabolic Activation: RAT, LIVER, S-9, AROCLOR 1254 (10%), Method: PREINCUBATION); “inactive; negative” (Test System: AMES SALMONELLA TYPHIMURIUM, Strain/Indicator: TA1537, Metabolic Activation: HAMSTER, LIVER, S-9, AROCLOR 1254 (10%), Method: PREINCUBATION); “inactive; negative” (Test System: AMES SALMONELLA TYPHIMURIUM, Strain/Indicator: TA1537, Metabolic Activation: NONE, Method: PREINCUBATION). The mutagenic call reads like this: (Test System: AMES SALMONELLA TYPHIMURIUM, Strain/Indicator: TA1537, Metabolic Activation: RAT, LIVER, S-9, AROCLOR 1254 (10%), Method: PREINCUBATION) “inactive; negative”; (Test System: AMES SALMONELLA TYPHIMURIUM, Strain/Indicator: TA1538, Metabolic Activation: NONE, Method: PREINCUBATION) “inactive; negative”.
